In US8268827B2, “Pyridazinone derivatives as PARP inhibitors” (Istituto di Ricerche di Biologia Molecolare P. Angeletti …, priority 2007, dated 2012):
Structures can show the parent of a compound that is named as a salt.

Test system: BRCA-1 silenced HeLa cells (HeLa shBRCA1-GFP)
Assay: Proliferation assay in BRCA-1 silenced HeLa cells
Format: cell-based
Details: Homo sapiens; BRCA1 silenced HeLa cells, 168 hours; read-out: CC50 in the BRCA1 silenced HeLa cells
Description: Proliferation Assay in BRCA-1 Silenced HeLa Cells
Compounds of the present invention were also tested in an anti-proliferative assay in matched pair BRCA1 wt and BRCA1-(shRNA) HeLa cells.
The assay is based on the ability of living cells to convert a redox dye (resazurin) into a fluorescent end product (resofurin). The amount of resofurin produced is directly proportional to the cell number.
HeLa shBRCA1-GFP—These are HeLa cells transduced at an MOI of 100 with a Lentivirus containing a shRNA against BRCA-1 and an expression cassette for GFP. BRCA-1 silencing is more than 80% as assessed by Taqman analysis and the cells stably express GFP.
HeLa THM-GFP—These are HeLa cells transduced at an MOI of 100 with a control vector not expressing any shRNA.
• Seed 300 cell/well in 96 wells viewplate black in 90 ul culture Medium*: • Incubate 4 hours at 37° C., 5% CO2 • Add 10 ul/well of 10× compound (5% DMSO in H2O) • Incubate for 168 hours at 37° C., 5% CO2 • Add 10 ul of Celltiter Blue solution (Promega, G8081) pre-diluted 1:1 in PBS1× • Incubate the mixture for 45′ at 37° C., 5% CO2 • Incubate 15′ at RT in the dark • Read plate at fluorimeter ex: 550 nm; em: 590 nm *Culture Medium: DMEM (GIBCO, 41966-029), 10% FCS (GIBCO, 10106-169), 0.1 mg/ml Penicillin-Streptomycin (GIBCO, 15140-114), 2 mM L-Glutamine (GIBCO, 3042190)

SMILES | CC50
Cc1cc(C)cc(CN2CCN(C(=O)c3cc(Cc4n[nH]c(=O)c(C)c4C)ccc3F)CC2=O)c1 [Example 19, 6-(3-{[4-(3,5-Dimethylbenzyl)-3-oxopiperazin-1-yl]carbonyl}-4-fluorobenzyl)-4,5-dimethylpyridazin-3(2H)-one trifluoroacetate] | 50 to 500 nM
Cc1c(Cc2ccc(F)c(C(=O)N3CCN(c4ccc(Cl)cc4)C(=O)C3)c2)n[nH]c(=O)c1C [Example 13, 6-(3-{[4-(4-Chlorophenyl)-3-oxopiperazin-1-yl]carbonyl}-4-fluorobenzyl)-4,5-dimethyl-3-oxo-2,3-dihydropyridazin-1-ium trifluoroacetate] | < 50 nM
Cc1c(Cc2ccc(F)c(C(=O)N3CCN(c4cccc5ccccc45)C(=O)C3)c2)n[nH]c(=O)c1C [Example 43, 3-(4-Fluoro-3-{[4-(1-naphthyl)-3-oxopiperazin-1-yl]carbonyl}benzyl)-4,5-dimethyl-6-oxo-1,6-dihydropyridazin-1-ium trifluoroacetate] | < 50 nM
Cc1c(Cc2ccc(F)c(C(=O)N3CCN(c4ccc(F)c(Cl)c4)C(=O)C3)c2)n[nH]c(=O)c1C [Example 10, 6-(3-{[4-(3-Chloro-4-fluorophenyl)-3-oxopiperazin-1-yl]carbonyl}-4-fluorobenzyl)-4,5-dimethyl-3-oxo-2,3-dihydropyridazin-1-ium trifluoroacetate] | < 50 nM
Cc1c(Cc2ccc(F)c(C(=O)N3CC(=O)N(c4cccc(Cl)c4)[C@H](C)C3)c2)n[nH]c(=O)c1C [Example 178, 6-(3-{[(3R)-4-(3-Chlorophenyl)-3-methyl-5-oxopiperazin-1-yl]carbonyl}-4-fluorobenzyl)-4,5-dimethylpyridazin-3(2H)-one] | < 50 nM
CCc1c(C)c(Cc2ccc(F)c(C(=O)N3CCN(C4CCCCC4)C(=O)C3)c2)n[nH]c1=O [Example 29, 3-{3-[(4-Cyclohexyl-3-oxopiperazin-1-yl)carbonyl]-4-fluorobenzyl}-5-ethyl-4-methyl-6-oxo-1,6-dihydropyridazin-1-ium trifluoroacetate] | < 50 nM
Cc1c(Cc2ccc(F)c(C(=O)N3CCN(CC(C)C(F)(F)F)C(=O)C3)c2)n[nH]c(=O)c1C (stereo not shown) [Example 45, 6-(4-Fluoro-3-{[3-oxo-4-(3,3,3-trifluoro-2-methylpropyl)piperazin-1-yl]carbonyl}benzyl)-4,5-dimethyl-3-oxo-2,3-dihydropyridazin-1-ium trifluoroacetate] | < 5000 nM
Cc1c(Cc2ccc(F)c(C(=O)N3CC(=O)N(c4ccc(F)c(Cl)c4)[C@H](C)C3)c2)n[nH]c(=O)c1C [Example 199, 6-(3-{[(3R)-4-(3-Chloro-4-fluorophenyl)-3-methyl-5-oxopiperazin-1-yl]carbonyl}-4-fluorobenzyl)-4,5-dimethylpyridazin-3(2H)-one] | < 50 nM
Cc1c(Cc2ccc(F)c(C(=O)N3CCN(Cc4ccc(F)cc4)C(=O)C3)c2)n[nH]c(=O)c1C [Example 8, 3-(4-Fluoro-3-{[4-(4-fluorobenzyl)-3-oxopiperazin-1-yl]carbonyl}benzyl)-4,5-dimethyl-6-oxo-1,6-dihydropyridazin-1-ium trifluoroacetate] | < 5000 nM
Cc1c(Cc2ccc(F)c(C(=O)N3CCN(c4csc5ccccc45)C(=O)C3)c2)n[nH]c(=O)c1C [Example 62, 3-(3-{[4-(1-Benzothien-3-yl)-3-oxopiperazin-1-yl]carbonyl}-4-fluorobenzyl)-4,5-dimethyl-6-oxo-1,6-dihydropyridazin-1-ium trifluoroacetate] | 50 to 500 nM
Cc1c(Cc2ccc(F)c(C(=O)N3CC(=O)N(c4ccc(Cl)cc4)[C@H](C)C3)c2)n[nH]c(=O)c1C [Example 194, 6-(3-{[(3R)-4-(4-Chlorophenyl)-3-methyl-5-oxopiperazin-1-yl]carbonyl}-4-fluorobenzyl)-4,5-dimethylpyridazin-3(2H)-one] | < 50 nM
COC[C@H](C)N1CCN(C(=O)c2cc(Cc3n[nH]c(=O)c(C)c3C)ccc2F)CC1=O [Example 169, 6-[4-Fluoro-3-({4-[(1S)-2-methoxy-1-methylethyl]-3-oxopiperazin-1-yl}carbonyl)benzyl]-4,5-dimethylpyridazin-3(2H)-one] | < 5000 nM
Cc1c(Cc2ccc(F)c(C(=O)N3CC(=O)N(C4CCCOC4)C(C)C3)c2)n[nH]c(=O)c1C (stereo not shown) [Example 129, 6-(4-Fluoro-3-{[3-methyl-5-oxo-4-(tetrahydro-2h-pyran-3-yl)piperazin-1-yl]carbonyl}benzyl)-4,5-dimethylpyridazin-3(2H)-one trifluoroacetate] | 50 to 500 nM
Cc1c(Cc2ccc(F)c(C(=O)N3CC(=O)N(c4cc(F)cc(Cl)c4)[C@H](C)C3)c2)n[nH]c(=O)c1C [Example 198, 6-(3-{[(3R)-4-(3-Chloro-5-fluorophenyl)-3-methyl-5-oxopiperazin-1-yl]carbonyl}-4-fluorobenzyl)-4,5-dimethylpyridazin-3(2H)-one] | < 50 nM
Cc1c(Cc2ccc(F)c(C(=O)N3CCN(C(C)C4CC4)C(=O)C3)c2)n[nH]c(=O)c1C (stereo not shown) [Example 204, 6-(3-{[4-(1-Cyclopropylethyl)-3-oxopiperazin-1-yl]carbonyl}-4-fluorobenzyl)-4,5-dimethylpyridazin-3(2H)-one] | 50 to 500 nM
Cc1c(Cc2ccc(F)c(C(=O)N3CC(=O)N(C4CCC(C)(C)CC4)C(C)C3)c2)n[nH]c(=O)c1C (stereo not shown) [Example 128, 6-(3-{[4-(4,4-Dimethylcyclohexyl)-3-methyl-5-oxopiperazin-1-yl]carbonyl}-4-fluorobenzyl)-4,5-dimethylpyridazin-3(2H)-one trifluoroacetate] | < 50 nM
Cc1c(Cc2ccc(F)c(C(=O)N3CCN(C4CCC(c5ccccc5)C4)C(=O)C3)c2)n[nH]c(=O)c1C (stereo not shown) [Example 119, 6-(4-fluoro-3-{[3-oxo-4-(3-phenylcyclopentyl)piperazin-1-yl]carbonyl}benzyl)-4,5-dimethyl-3-oxo-2,3-dihydropyridazin-1-ium trifluoroacetate] | < 50 nM
Cc1c(Cc2ccc(F)c(C(=O)N3CC(=O)N(c4ccc(C#N)cc4)[C@H](C)C3)c2)n[nH]c(=O)c1C [Example 189, 4-((2R)-4-{5-[(4,5-Dimethyl-6-oxo-1,6-dihydropyridazin-3-yl)methyl]-2-fluorobenzoyl}-2-methyl-6-oxopiperazin-1-yl)benzonitrile] | < 50 nM
Cc1c(Cc2ccc(F)c(C(=O)N3CC(=O)N([C@H]4CCOC4)[C@H](C)C3)c2)n[nH]c(=O)c1C (single isomer, unassigned) [75 (II4A)] | 50 to 500 nM
Cc1c(Cc2ccc(F)c(C(=O)N3CCN(c4ccccc4Cl)C(=O)C3)c2)n[nH]c(=O)c1C [Example 14, 6-(3-{[4-(2-Chlorophenyl)-3-oxopiperazin-1-yl]carbonyl}-4-fluorobenzyl)-4,5-dimethyl-3-oxo-2,3-dihydropyridazin-1-ium trifluoroacetate] | 50 to 500 nM
O=C(c1cc(Cc2cc(C(F)(F)F)c(=O)[nH]n2)ccc1F)N1CCN([C@@H]2CCCOC2)C(=O)C1 [Example 154, 6-[4-fluoro-3-({3-oxo-4-[(3R)-tetrahydro-2H-pyran-3-yl]piperazin-1-yl}carbonyl)benzyl]-4-(trifluoromethyl)pyridazin-3(2H)-one] | < 5000 nM
Cc1c(Cc2ccc(F)c(C(=O)N3CCN(c4ccc(F)c(F)c4)C(=O)C3)c2)n[nH]c(=O)c1C [Example 11, 6-(3-{[4-(3,4-Difluorophenyl)-3-oxopiperazin-1-yl]carbonyl}-4-fluorobenzyl)-4,5-dimethyl-3-oxo-2,3-dihydropyridazin-1-ium trifluoroacetate] | < 50 nM
